Results published in patent publication US5342925A, “Radioactive compositions for soft tissue tumors” (priority 1991, dated 1994).
“And” between values parts separate entries of the source, which are not always exact repeats. Equal entries are not always repeated. Each block holds one molecule with its values, some of them ahead of it.

Experiments:
[1] = system: Ehrlich tumors; details: experimental animals bearing Ehrlich tumors; cited from earlier work
[2] = system: naturally occurring melanotic lesions; assay: Tumor uptake scored from images of miniature pigs with naturally occurring melanotic lesions; format: in vivo; details: 24 hour images, average score of 3 investigators, scale 0-3
Experimental: (§1) Images (right lateral, left lateral and dorsal) were made at 4, 24, 48 and 72 hours.
(§2) 1--Slight uptake (negligible)
(§3) 2--Moderate uptake (intermediate )
(§4) 3--Definite uptake (high)
(§5) The average of the 3 investigators independent scores were used in the following table.

[3] = Bone and liver uptake scored from scintigraphic images of miniature pigs with melanotic lesions; format: in vivo
Experimental: as §1, §2, §3, §4, §5

[4] = Whole body retention (whole body counts after I.V. injection) in miniature pigs with melanotic lesions; format: in vivo; details: for % Whole Body Retention (24 hrs.): I.V., 1-2 mCi 153Sm, % = percentage of injected dose
Experimental: as §1

[5] = in vivo; cited from earlier work
[6] = 24 hour images, average score of 3 investigators, scale 0-3
[7] = Comparative Example A, in words

Molecule: O=C(O)CN(CCO)CCN(CC(=O)O)CC(=O)O [hydroxyethylethylenediaminetriacetic acid]
- tumor imaging [1]: less effective

Molecule: CC(=O)Nc1ccc(O)c(CN(CC(=O)O)CC(=O)O)c1.[153Sm+3] [Example 2]
- Tumor Uptake (Dorsal neck) [2]: 3.00
- Tumor Uptake (Left stifle) [2]: 2.00
- Tumor Uptake (Right head) [2]: 0.00
- Tumor Uptake (Right thorax) [2]: 0.00
- Tumor Uptake (draining node) ([2]; draining node): 0.00
- Bone Uptake [3, 6]: 1.33 and 2.33
- Liver Uptake [3, 6]: 2.00 and 1.00
- % Whole Body Retention (24 hrs.) [4]: 60.7% and 46.6%

Molecule: O=C(O)CN(CCN(CC(=O)O)CC(=O)O)CC(=O)O [ethylenediaminetetraacetic acid (EDTA), ethylenediaminetetraacetic acid]
- tumor imaging [1]: less effective

Molecule: CC(=O)Nc1cc(CN(CC(=O)O)CC(=O)O)c(O)c(CN(CC(=O)O)CC(=O)O)c1.[153Sm+3] [Example 3]
- Tumor Uptake (Left sacrum) ([2]; Left sacrum): 3.00
- Tumor Uptake (Right nasal) ([2]; Right nasal): 2.00
- Tumor Uptake (Right stifle) ([2]; Right stifle): 0.00
- % Whole Body Retention (24 hrs.) [4]: 42.9% and 37.1%

Molecule: CN(CC(=O)O)CC(=O)O [methyliminodiacetic acid (MIDA), methyliminodiacetic acid]
- tumor imaging [1]: less effective

Molecule: O=C(O)CN(CC(=O)O)CC(=O)O [nitrilotriacetic acid (NTA), nitrilotriacetic acid]
- tumor imaging [1]: less effective

Molecule: O=C([O-])CN(CCN(CC(=O)[O-])CC(=O)[O-])CCN(CC(=O)[O-])CC(=O)[O-].[99Tc+4] [^99m Tc-DTPA]
- elimination route [5]: eliminated from the body by the kidneys into the urine
- tissue localization [5]: does not result in the radionuclide localizing in any tissue

Molecule: ^99m Tc-ethylenediaminediacetic acid
- tumor imaging [1]: could be used to image tumors

- Liver Uptake [3, 7]: unacceptably large liver uptake
- clearance from extracellular fluid [4, 7]: never cleared the extracellular fluid
Molecule: O=C([O-])CC(O)(CC(=O)[O-])C(=O)[O-].[67Ga+3] [^67 Ga-citrate, reference compound]

Molecule: O=C(O)CNCC(=O)O [iminodiacetic acid (IDA), iminodiacetic acid]
- tumor imaging [1]: less effective

Molecule: CC(=O)Nc1cc(CN(CC(=O)O)CC(=O)O)c(O)c(CN(CC(=O)O)CC(=O)O)c1.[153Sm+3] [Example 1]
- Tumor Uptake (Dorsal neck) [2]: 3.00
- Tumor Uptake (Left stifle) [2]: 2.00
- Tumor Uptake (Right head) [2]: 0.67
- Tumor Uptake (Right thorax) [2]: 2.00
- Bone Uptake [3, 6]: 3.00
- Liver Uptake [3, 6]: 0.67
- % Whole Body Retention (24 hrs.) [4]: 29.5% and 40.1%

Molecule: CC(=O)Nc1cc(CN(CC(=O)O)CC(=O)O)c(O)c(CN(CC(=O)O)CC(=O)O)c1.[153Sm+3] [Example 4]
- Tumor Uptake (Left carpus) ([2]; Left carpus): 0.00
- Tumor Uptake (Left stifle) [2]: 0.00
- Tumor Uptake (Right ear) ([2]; Right ear): 2.00
- Bone Uptake [3, 6]: 1.67
- Liver Uptake [3, 6]: 3.00 and 2.00
- % Whole Body Retention (24 hrs.) [4]: 55.2% and 48.2%
